Biological target: T1, Ubiquitin-like modifier-activating enzyme 1 (Homo sapiens, UniProt P22314)
T1 sequence (P22314 whole entry): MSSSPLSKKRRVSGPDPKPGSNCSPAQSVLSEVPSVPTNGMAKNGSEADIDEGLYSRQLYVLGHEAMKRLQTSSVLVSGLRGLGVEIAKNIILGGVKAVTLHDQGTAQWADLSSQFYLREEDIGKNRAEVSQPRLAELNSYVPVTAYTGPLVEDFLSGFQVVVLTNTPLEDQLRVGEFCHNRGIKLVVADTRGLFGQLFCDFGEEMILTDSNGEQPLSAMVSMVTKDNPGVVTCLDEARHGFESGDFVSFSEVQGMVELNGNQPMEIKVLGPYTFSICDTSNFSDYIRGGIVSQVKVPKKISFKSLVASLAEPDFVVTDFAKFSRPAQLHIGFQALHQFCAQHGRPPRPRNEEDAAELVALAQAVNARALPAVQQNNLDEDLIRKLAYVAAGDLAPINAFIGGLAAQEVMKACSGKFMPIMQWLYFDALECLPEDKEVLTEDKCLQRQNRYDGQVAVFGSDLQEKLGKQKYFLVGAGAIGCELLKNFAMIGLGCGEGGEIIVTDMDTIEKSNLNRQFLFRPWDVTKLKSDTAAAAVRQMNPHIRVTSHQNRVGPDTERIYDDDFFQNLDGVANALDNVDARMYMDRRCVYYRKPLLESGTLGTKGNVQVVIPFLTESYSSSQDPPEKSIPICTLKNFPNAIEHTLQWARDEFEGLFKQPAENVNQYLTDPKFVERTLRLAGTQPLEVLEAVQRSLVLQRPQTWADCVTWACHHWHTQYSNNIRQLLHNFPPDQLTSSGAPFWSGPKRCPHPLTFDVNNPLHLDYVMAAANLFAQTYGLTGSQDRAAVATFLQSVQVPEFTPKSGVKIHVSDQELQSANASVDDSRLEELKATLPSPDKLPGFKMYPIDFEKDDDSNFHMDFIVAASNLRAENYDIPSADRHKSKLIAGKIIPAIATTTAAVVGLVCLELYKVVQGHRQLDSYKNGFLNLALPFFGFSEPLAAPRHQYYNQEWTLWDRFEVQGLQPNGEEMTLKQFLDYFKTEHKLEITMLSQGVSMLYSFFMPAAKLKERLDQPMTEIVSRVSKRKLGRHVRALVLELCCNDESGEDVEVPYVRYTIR
Assay: Inhibition of human recombinant E1-ubiquitin complex formation

SMILES: CC(C)(O)/C=C/[C@@]12[C@H]3[C@@H](O)[C@@H]4O[C@@H]4[C@]1(O)OC(C)(C)[C@@H]2C=C1C(=O)[C@H]2O[C@H]2[C@H](O)[C@H]13 [PANEPOPHENANTHRIN]
- IC50: 40.4 µM
